Data as given in patent publication US6011019A, “Vasoactive effects and free radical generation by β-amyloid peptides” (University of South Florida, priority 1996, dated 2000).

Assays:
[1] = test system: blood vessel (rat aorta); assay: Acetylcholine induced relaxation of preconstricted rat aorta after β-amyloid; conditions: for acetylcholine induced relaxation after β-amyloid pretreatment: 10^-6 M β-amyloid fifteen minutes, preconstricted with 10^-7 M phenylephrine
Protocol: (§1) The blood vessel preparations were mounted on stainless steel hooks attached to a force-displacement transducer and equilibrated under the optimum tension of 1.3 g for a period of sixty minutes in a tissue bath (10 ml) containing oxygenated (5% CO2 in O2) Kreb's buffer at 37° C. The buffer was changed every fifteen minutes. After equilibration for sixty minutes the viability of the blood vessel with intact endothelium was established by constricting the blood vessel using phenylephrine ([…]). This dose of phenylephrine elicited 80% of the maximum response. […] The vessel preparations were washed for fifteen minutes before various manipulations as described below.
(1=10^-9 M, 2=10^-8 M, 3=5×10^-8 M, 4=10^-7 M, 5=5×10^-7 M, 6=10^-6 M, 7=10^-5 M, 8=5×10^-5 M, the curve denoted by (C) is the control curve and +Aβ indicates the curve for β-amyloid treated aorta.)
FIG. 11 illustrates the relaxation by acetylcholine under control conditions and following fifteen minute incubation with 10^-6 M β-amyloid protein. The acetylcholine relaxation curve is shifted to the right but maintains its sigmoidal form indicating attenuation of acetylcholine induced relaxation. Values represent the mean±SEM of 5 or more experiments. […] At higher doses of acetylcholine greater percentage changes in relaxation occur preserving the sigmoidal response.

[2] = test system: aortic rings; assay: β-amyloid augmentation of phenylephrine (PE) induced contraction of aortic rings; design: species or system rat; conditions: for PE induced contraction, +β-Amyloid P1 (±SEM): after 10^-6 M β-amyloid, maximum contraction without β-amyloid = 100%; for PE induced contraction, +β-Amyloid P2 (±SEM): repeated contraction after washing, no further β-amyloid
Protocol: as §1
The procedure was then repeated following incubation of the tissue with 10^-6 M β-amyloid for fifteen minutes (P1). The tissue was then rinsed and contractions repeated twice following fifteen minute incubation (P2 & P3) without further addition of β-amyloid. Arrows are shown for points of addition for P3.
Following a fifteen minute incubation, the preparations were contracted with 10^-7 M phenylephrine (PE) as described earlier. Control contractions with PE alone were carried out in presence of the various test compounds. Values represent the mean±SEM of four or more experiments. The heat-inactivated SOD was prepared by placing it in boiling water for thirty minutes followed by cooling prior to use. The hydrogen peroxide-inactivated SOD was prepared by exposing SOD to 10 mM H2 O2 for thirty minutes at pH 8.5 and subsequent separation using Microcon filtration system. The amyloid induced PE contraction was blocked by active SOD. Neither albumin or inactivated SOD had any effect on the amyloid activity.
The effect of preincubation of blood vessel with 10^-6 M β-amyloidon contraction induced by phenylephrine (2, 4, 8, & 16×10^-8 M is shown in Table 1). The maximum contraction in the absence of β-amyloid is taken as 100% and the values obtained following exposure to β-amyloid are expressed as percent of control value. After washing out phenylephrine and acetylcholine of the control contraction, β-amyloid augmented the phenylephrine induced contractions (P1). This effect was blocked by SOD. Washing out the phenylephrine and acetylcholine of the post peptide contraction and repeating the contractions caused further enhancement (P2). Values represent the mean±SEM of nine or more experiments.
The tissue was then incubated for fifteen minutes with β-amyloid (5×10^-7 M) with or without the drug, followed by contractions with PE. The concentrations compounds used were: L-NMMA, an inhibitor of NO synthase (10^-4 M); indomethacin, an inhibitor of the cyclooxygenase pathway (10^-5 M); SQ 29548, a thromboxane A2 receptor antagonist (10^-5 M); and catalase (1000 units/ml). Values are represented as percentage of the maximal contraction obtained with β-amyloid and PE alone and standardized to remove the intrinsic effects (if any) of each drug on PE contraction alone. The results represent the mean±SEM of five or more experiments.

β-amyloid
acetylcholine induced relaxation after β-amyloid pretreatment [1]: significantly reduced relaxation
acetylcholine induced relaxation after β-amyloid pretreatment ([1]; listed as β-amyloid protein): significantly lowered
restoration of acetylcholine induced relaxation by washing after β-amyloid ([1]; tissue washed following β-amyloid exposure): did not restore the acetylcholine-induced relaxation to control levels
PE induced contraction, +β-Amyloid P1 (±SEM) ([2]; PE 2×10^-8 M): 13.3(5.9) percent of control value
PE induced contraction, +β-Amyloid P2 (±SEM) ([2]; PE 2×10^-8 M): 20(5.0) percent of control value
PE induced contraction, +β-Amyloid P1 (±SEM) ([2]; PE 4×10^-8 M): 75(6.0) percent of control value
PE induced contraction, +β-Amyloid P2 (±SEM) ([2]; PE 4×10^-8 M): 99(15.0) percent of control value
PE induced contraction, +β-Amyloid P1 (±SEM) ([2]; PE 8×10^-8 M): 105(15.0) percent of control value
PE induced contraction, +β-Amyloid P2 (±SEM) ([2]; PE 8×10^-8 M): 133(20.0) percent of control value
PE induced contraction, +β-Amyloid P1 (±SEM) ([2]; PE 16×10^-8 M): 128(11.7) percent of control value
PE induced contraction, +β-Amyloid P2 (±SEM) ([2]; PE 16×10^-8 M): 141(17.6) percent of control value
PE contraction after washing the β-amyloid treated tissue ([2]; subsequent contraction with PE): showed further increase
